For one data set, the system named is glutathione. The settings on record: mouse, large quantities of APAP, cited from earlier work.
The target of data set [1] is T1, γ-glutamyl cysteine synthase (GCS) (Mus musculus, UniProt P97494).
T1 construct: Liver specimens (about 300 mg) were excised from the mice 1 hour after administration; from tissue; host or cells: mouse liver (in vivo, intraperitoneal dosing); serum also measured
T1 sequence (P97494 1-637): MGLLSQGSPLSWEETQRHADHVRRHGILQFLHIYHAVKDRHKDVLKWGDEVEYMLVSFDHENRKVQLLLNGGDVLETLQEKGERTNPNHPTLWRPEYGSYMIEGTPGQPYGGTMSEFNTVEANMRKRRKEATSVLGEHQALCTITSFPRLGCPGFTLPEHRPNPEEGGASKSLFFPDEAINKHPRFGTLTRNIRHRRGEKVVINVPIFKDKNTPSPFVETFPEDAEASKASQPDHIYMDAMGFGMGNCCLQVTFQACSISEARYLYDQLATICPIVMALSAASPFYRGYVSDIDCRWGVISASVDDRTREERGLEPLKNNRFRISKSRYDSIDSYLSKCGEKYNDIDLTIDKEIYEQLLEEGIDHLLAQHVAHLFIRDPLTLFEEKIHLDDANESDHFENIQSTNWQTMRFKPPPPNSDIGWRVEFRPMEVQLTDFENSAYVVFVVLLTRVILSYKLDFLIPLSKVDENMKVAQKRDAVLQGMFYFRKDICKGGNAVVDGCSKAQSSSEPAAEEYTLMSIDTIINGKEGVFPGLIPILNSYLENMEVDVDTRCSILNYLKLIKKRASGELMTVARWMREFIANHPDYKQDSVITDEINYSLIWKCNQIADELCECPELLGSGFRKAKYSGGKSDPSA
T1 sequence (O09172 1-274 partner): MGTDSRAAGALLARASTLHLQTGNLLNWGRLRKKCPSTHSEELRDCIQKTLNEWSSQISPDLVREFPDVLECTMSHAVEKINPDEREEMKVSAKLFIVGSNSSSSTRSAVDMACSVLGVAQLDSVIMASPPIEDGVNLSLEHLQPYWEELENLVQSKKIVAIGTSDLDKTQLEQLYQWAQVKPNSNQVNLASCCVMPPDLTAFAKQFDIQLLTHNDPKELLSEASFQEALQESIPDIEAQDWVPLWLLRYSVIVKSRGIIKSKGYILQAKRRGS
Nature of the data set: Administration of GCS inhibitor BSO and GCS activator DEM to mice; metabolites in liver and serum measured by CE-TOFMS. In kind it is in vivo. The settings on record: intraperitoneal 4 mmol/kg. The source says: The biosynthesis mechanism of γ-Glu-X peptides was elucidated using a mouse. As shown in FIG. 1(B), the following biosynthesis mechanism of γ-Glu-X peptides was found. That is, the oxidative stress condition caused by active oxygen and electrophiles causes depletion of glutathione, which is used for removing these substances, and this depletion leads to activation of γ-glutamyl cysteine synthase (GCS). Then, γ-Glu-X dipeptides and γ-Glu-X-Gly tripeptides are biosynthesized by using various amino acids as substrates (starting materials). The experimental procedures are described below.
Male mice were fasted overnight and anesthetized by an intraperitoneal injection of pentobarbital sodium (60 mg/Kg of body weight). Then, the mice were intraperitoneally injected with BSO, which is a γ-glutamyl cysteine synthase (GCS) inhibitor, and diethylmaleate (DEM), which is an electrophile (GCS activator), both at a dose of 4 mmol/kg of body weight (888 mg of BSO, 688 mg of DEM). The mouse as a healthy subject was intraperitoneally injected with physiological saline. Liver specimens (about 300 mg) were excised from the mice 1 hour after administration (5 times each).
The liver specimens (about 300 mg) excised from the mice were immediately placed in 1 ml of methanol containing an internal standard substance and were homogenized to inactivate an enzyme, thereby stopping enhancement of metabolism. After 500 μl of pure water was added to the mixture, 300 μl of solution was taken out. To this solution, 200 μl of chloroform was added. After thorough stirring, the solution was further centrifuged at 15000 rpm for 15 minutes at 4° C. After allowing to stand, 300 μl of separated water-methanol phase was passed through a 5 kDa molecular weight cutoff filter for centrifugal ultrafiltration to deproteinize it. The filtrate was lyophilized and 50 μl of Milli-Q water was added thereto. The mixture was subjected to a CE-TOFMS measurement.
The method described below was used to confirm that the detected γ-Glu-X peptides and γ-Glu-X-Gly peptides were synthesized in a glutathione-biosynthesis pathway. […]

Molecules are shown by their SMILES.

`CC(=O)Nc1ccc(O)cc1` [APAP, Acetaminophen]: the ophthalmic acid level result in the data set with glutathione (in inverse proportion to the glutathione level) is recorded as “increased rapidly”. Moreover, in the data set on glutathione, the glutathione level result is “decreased”.
In the case of `CCCCS(=N)(=O)CCC(N)C(=O)O` (centres unmarked) [BSO], in data set [1] (liver 1 hour after administration, compared to the healthy (saline) mouse), the “amount of glutathione in the livers” value was “decreased rapidly”. For the same compound, the “γ-Glu-X and γ-Glu-X-Gly peptidic substances in the liver other than γ-Glu-Cys, GSH and γ-Glu-Ser-Gly” value in data set [1] (liver 1 hour after administration, compared to the healthy subject) is recorded as “decreased”. The “γ-Glu-2AB and ophthalmic acid (γ-Glu-2AB-Gly) in the murine serum” value in data set [1] (serum, compared to the normal state) is “decreased”.

These data come from patent US20130330749A1, “METHOD AND APPARATUS FOR DETECTING LIVER DISEASE, AND METHOD FOR ASSAYING PHARMACEUTICAL PREPARATION” (priority 2008, published 2013).
